Usually IC50 stands for the concentration needed to halve the response being measured.

The record followed here is patent publication US20110224231A1, “Novel Lactams as Beta Secretase Inhibitors” (Pfizer Inc., priority 2008, published 2011).

This experiment concerns the target T1, soluble human BACE (Homo sapiens, UniProt P56817).
T1 construct: cells secreting human recombinant soluble BACE; made in house; conditioned medium
The experiment can be described thus: BACE activity Cell Free Assay (ELISA of cleaved synthetic APP substrate). Format: biochemical. As for the experimental part:
A synthetic APP substrate that can be cleaved by beta˜secretase and having N-terminal biotin is used to assay beta-secretase activity in the presence or absence of the inhibitory compounds. […] The substrate and test compounds are added to 384 well polypropylene plates. The reaction is initiated by the addition of soluble BACE enzyme to a final volume of 12.5 μL per well. The final assay conditions are: 0.001˜300 μM compound inhibitor, 0.05M sodium acetate (pH 4.5), 3 μM substrate, soluble human BACE, and 2% DMSO. Concentrated conditioned media from cells secreting human recombinant soluble BACE was titrated to provide a source of BACE enzyme. The cell media can be used as either a crude BACE prep or BACE can be purified using any number of techniques, including immobilized BACE inhibitor purification columns. The assay mixture is incubated for 1 hour at 37° C., and the reaction is quenched by the addition of an equal volume of 0.1M Tris, pH 8. Half of the quenched mix is incubated on clear streptavidin coated 384 well polystyrene plates for 1 hour. An ELISA is then performed using an in˜house antibody that specifically recognizes the new C˜terminus created after cleavage by BACE. […] (These polyclonal antibodies were raised in rabbits by immunizing with antigen comprised of six amino acid residues present at the carboxy terminus of the wild-type soluble APPbeta sequence (NH2-ISEVKM-COOH) or seven amino acid residues present at the carboxy terminus of the Swedish mutation at the beta cleavage site (NH2-EISEVNL˜COOH) conjugated to keyhole limpet hemacyanin by methods known to those skilled in the art.) A secondary anti˜species Horseradish Peroxidase (HRP) conjugated antibody is then utilized. The readout, following assay development with TMB substrate and quenching with 0.09M sulfuric acid, is absorbance at 450 nm.
A general note: ELISA stands for enzyme-linked immunosorbent assay.

T1 sequence (P56817 46-457 limits assumed): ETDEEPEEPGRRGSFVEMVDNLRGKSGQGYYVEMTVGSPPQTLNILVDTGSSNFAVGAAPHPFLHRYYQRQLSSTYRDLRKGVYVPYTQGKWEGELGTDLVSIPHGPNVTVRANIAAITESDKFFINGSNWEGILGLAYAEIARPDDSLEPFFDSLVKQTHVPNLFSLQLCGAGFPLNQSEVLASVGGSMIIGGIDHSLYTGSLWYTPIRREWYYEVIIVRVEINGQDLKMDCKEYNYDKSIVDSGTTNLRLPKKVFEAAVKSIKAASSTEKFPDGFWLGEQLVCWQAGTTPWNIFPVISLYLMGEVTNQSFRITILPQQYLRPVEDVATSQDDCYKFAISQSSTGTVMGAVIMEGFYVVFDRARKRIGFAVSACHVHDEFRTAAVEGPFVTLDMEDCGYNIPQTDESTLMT

On to `CC(=O)Nc1ccc(CN2CCC3(C=CC(=O)N3c3cccc(F)c3)CC2C)cc1` (racemic) [Example 59, Racemic N-(4-{[(5R,7S),(5S,7R)-1-(3-fluorophenyl)-7-methyl-2-oxo-1,8-diazaspiro[4.5]-3-en 8-yl]methyl}phenyl)acetamide], for which the IC50 was in the range of 1 to 10 µM.
Under `CC1CC2(C=CC(=O)N2c2cccc(F)c2)CCN1Cc1ccnn1CC(F)(F)F` (racemic) [Example 60, Racemic (5R,7S),(5S,7R)-1-(3-fluorophenyl)-7-methyl-8-{[1-(2,2,2-trifluoroethyl)-1H-pyrazol-5-yl]methyl}-1,8-diazaspiro[4.5]dec-3-en-2-one] stands 10 to 100 µM; under `CC1CC2(C=CC(=O)N2c2cccc(F)c2)CCN1Cc1c[nH]c2ccc(C#N)cc12` (racemic) [Example 61, Racemic 3-{[(5R,7S),(5S,7R)-1-(3-fluorophenyl)-7-methyl-2-oxo-1,8-diazaspiro[4.5]dec-3-en-8-yl]methyl}-1H-indole-5-carbonitrile], 10 to 100 µM; under `CC1CC2(C=CC(=O)N2c2cccc(F)c2)CCN1Cc1c[nH]c2ccc(OCc3ccccc3)cc12` (racemic) [Example 62, Racemic (5R,7S),(5S,7R)-8-{[5-(benzyloxy)-1H-indol-3-yl]methyl}-1-(3-fluorophenyl)-7-methyl-1,8-diazaspiro[4.5]dec-3-en-2-one], 10 to 100 µM.
The value for `CC1CC2(C=CC(=O)N2c2cccc(F)c2)CCN1Cc1c[nH]c2cc(F)ccc12` (racemic) [Example 63, Racemic (5R,7S),(5S,7R)-8-[(6-fluoro-1H-indol-3-yl)methyl]-1-(3-fluorophenyl)-7-methyl-1,8-diazaspiro[4.5]dec-3-en-2-one] was 10 to 100 µM; that for `CC1CC2(C=CC(=O)N2c2cccc(F)c2)CCN1Cc1cccc(-n2cccn2)c1` (racemic) [Example 64, Racemic (5R,7S),(5S,7R)-1-(3-fluorophenyl)-7-methyl-8-[3-(1H-pyrazol-1-yl)benzyl]-1,8-diazaspiro[4.5]dec-3-en-2-one] was 10 to 100 µM.
With `CC1CC2(C=CC(=O)N2c2cccc(F)c2)CCN1Cc1n[nH]c2ccc(Cl)cc12` (racemic) [Example 65, Racemic (5R,7S),(5S,7R)-8-[(5-chloro-1H-indazol-3-yl)methyl]-1-(3-fluorophenyl)-7-methyl-1,8-diazaspiro[4.5]dec-3-en-2-one], the IC50 lay in the range of 10 to 100 µM.
`Cc1ccc2c(CN3CCC4(C=CC(=O)N4c4cccc(F)c4)CC3C)c[nH]c2c1` (racemic) [Example 66, Racemic (5R,7S),(5S,7R)-1-(3-fluorophenyl)-7-methyl-8-[(6-methyl-1H-indol-3-yl)methyl]-1,8-diazaspiro[4.5]dec-3-en-2-one] displayed an IC50 of 10 to 100 µM.
Under `CC1CC2(C=CC(=O)N2c2cccc(F)c2)CCN1Cc1c[nH]c2cc(C(F)(F)F)ccc12` (racemic) [Example 67, Racemic (5R,7S),(5S,7R)-1-(3-fluorophenyl)-7-methyl-8-{[6-(trifluoromethyl)-1H-indol-3-yl]methyl}-1,8-diazaspiro [4.5]dec-3-en-2-one] stands 10 to 100 µM.
Under `CC1CC2(C=CC(=O)N2c2cccc(F)c2)CCN1Cc1cccc(OCc2nc(C3CC3)no2)c1` (racemic) [Example 68, Racemic (5R,7S),(5S,7R)-8-{3-[(3-cyclopropyl-1,2,4-oxadiazol-5-yl)methoxy]benzyl}-1-(3-fluorophenyl)-7-methyl-1,8-diazaspiro[4.5]dec-3-en-2-one] stands 10 to 100 µM; under `CC(=O)Nc1ccc(CN2CCC3(CCC(=O)N3c3cccc(F)c3)CC2C)cc1` (racemic) [Example 69, Racemic N-(4-{[(5R,7S),(5S,7R)-1-(3-fluorophenyl)-7-methyl-2-oxo-1,8-diazaspiro[4.5]dec-8-yl]methyl}phenyl)acetamide], 10 to 100 µM; under `CC1CC2(CCC(=O)N2c2cccc(F)c2)CCN1Cc1c[nH]c2ccc(Cl)cc12` (racemic) [Example 70, Racemic (5R,7S),(5S,7R)-8-[(5-chloro-1H-indol-3-yl)methyl]-1-(3-fluorophenyl)-7-methyl-1,8-diazaspiro[4.5]decan-2-one], 10 to 100 µM.
Under `CC1CC2(C=CC(=O)N2c2cccc(F)c2)CCN1Cc1nc(-c2cccc(Cl)c2)cs1` (racemic) [Example 71, Racemic (5R,7S),(5S,7R)-8-{[4-(3-chlorophenyl)-1,3-thiazol-2-yl]methyl}-1-(3-fluorophenyl)-7-methyl-1,8-diazaspiro[4.5]dec-3-en-2-one] stands 10 to 100 µM; under `COc1cccc(-c2csc(CN3CCC4(C=CC(=O)N4c4cccc(F)c4)CC3C)n2)c1` (racemic) [Example 72, Racemic (5R,7S),(5S,7R)-1-(3-fluorophenyl)-8-{[4-(3-methoxyphenyl)-1,3-thiazol-2-yl]methyl}-7-methyl-1,8-diazaspiro[4.5]dec-3-en-2-one], 10 to 100 µM; under `COc1ccc(-c2csc(CN3CCC4(C=CC(=O)N4c4cccc(F)c4)CC3C)n2)cc1` (racemic) [Example 73, Racemic (5R,7S),(5S,7R)-1-(3-fluorophenyl)-8-{[4-(4-methoxyphenyl)-1,3-thiazol-2-yl]methyl}-7-methyl-1,8-diazaspiro[4.5]dec-3-en-2-one], 10 to 100 µM.
With `CC1CC2(CCC(=O)N2c2cccc(F)c2)CCN1Cc1c[nH]c2cc(F)ccc12` (racemic) [Example 74, Racemic (5R,7S),(5S,7R)-8-[(6-fluoro-1H-indol-3-yl)methyl]-1-(3-fluorophenyl)-7-methyl-1,8-diazaspiro[4.5]decan-2-one], the IC50 is 100 to 300 µM.
The value for `COC(=O)Nc1ccc(CN2CCC3(CCC(=O)N3c3cccc(F)c3)CC2C)cc1` (racemic) [Example 75, Racemic methyl (4-{[(5R,7S),(5S,7R)-1-(3-fluorophenyl)-7-methyl-2-oxo-1,8-diazaspiro[4.5]dec-8-yl]methyl}phenyl)carbamate] was 100 to 300 µM; that for `CC1CC2(CCC(=O)N2c2cccc(F)c2)CCN1Cc1c[nH]c2ccc(C#N)cc12` (racemic) [Example 76, Racemic 3-{[(5R,7S),(5S,7R)-1-(3-fluorophenyl)-7-methyl-2-oxo-1,8-diazaspiro[4.5]dec-8-yl]methyl}-1H-indole-5-carbonitrile] was 100 to 300 µM; that for `CC1CC2(CCC(=O)N2c2cccc(F)c2)CCN1Cc1ccnn1CC(F)(F)F` (racemic) [Example 77, Racemic (5R,7S),(5S,7R)-1-(3-fluorophenyl)-7-methyl-8-{[1-(2,2,2-trifluoroethyl)-1H-pyrazol-5-yl]methyl}-1,8-diazaspiro[4.5]decan-2-one] was 100 to 300 µM.
Under `CC1CC2(CCC(=O)N2c2cccc(F)c2)CCN1Cc1n[nH]c2ccc(Cl)cc12` (racemic) [Example 78, Racemic (5R,7S),(5S,7R)-8-[(5-chloro-1H-indazol-3-yl)methyl]-1-(3-fluorophenyl)-7-methyl-1,8-diazaspiro[4.5]decan-2-one] stands 100 to 300 µM; under `CC1CC2(CCC(=O)N2c2cccc(F)c2)CCN1Cc1cccc(-n2cccn2)c1` (racemic) [Example 79, Racemic (5R,7S),(5S,7R)-1-(3-fluorophenyl)-7-methyl-8-[3-(1H-pyrazol-1-yl)benzyl]-1,8-diazaspiro[4.5]decan-2-one], 100 to 300 µM.
